Test results taken from patent US20240114940A1, “SACCHARIDE COMPOSITIONS HAVING SUCROSE-LIKE CHARACTERISTICS AND RELATED METHODS” (priority 2021, published 2024).

Tests used:
Assay type in all cases: physicochemical
[1] = Breakdown products by GCMS after Maillard reaction in the presence of Tryptophan; conditions: with Tryptophan, pH 7, 160° C., 10 min
Procedure: (§1) Controls were prepared addition of 1 mL of pH 7 buffer to the amino acids. The samples were rapidly heated to 160° C. and held at this temperature for 10 min. Samples were rapidly cooled afterwards, and absorbance at 500 nm was measured for each reaction mixture. Volatiles were analysed using gas chromatography mass spectrometry (GCMS) analysis. An Agilent Technologies 5975B Inert XL MSD gas chromatography, single quadruple mass spectrometer was used for analysis of volatiles. Samples were added to separate GCMS headspace vials and weighed. 0.03 g of 0.01% 3-heptanone in water was added and the vial was sealed for GCMS solid phase micro extraction (SPME) analysis. Samples were analysed in a randomized order. Samples were incubated and agitated at 250 RPM, at 60° C. for 15 min prior to SPME analysis of volatiles. The SPME fibre (50/30 DVB/CAR/PDMS, 23 Ga) extracted for 10 min, then thermally desorbed at 250° C. for 5 min. A 30 m×0.25 mm×0.25 μm HP-5MS column was used (Phenomenex, UK). Oven temperature settings: 31° C.-5 min, 5° C./min to 150° C., 30° C./min to 240° C. Inlet settings: 250° C., pressure 10.4 psi, flow 11.2 mL/min, split ratio 7:1. MS operated in full scan mode from 40 to 400 m/z with a scan time of 0.2s. The peak area of the aroma compounds was compared to the peak of the internal standard 3-heptanone and corrected for the weight of the sample.
(§2) The concentration of the different classes of Maillard reaction breakdown products is presented in Tables 9B-E. The same data as Tables 9B-E is also presented in FIG. 27. Concentrations are in parts per billion of the difference non-enzymatic breakdown products for the different compositions at 160° C. analysed by GCMS.

[2] = Breakdown products by GCMS after Maillard reaction in the presence of Histidine; conditions: 160° C.; for 2-Butanone concentration / 2-Propanone, 1-hydroxy- concentration / Diacetyl (2,3-Butanedione) concentration: Carbonyls/ketones; for Furan, 2-methyl- concentration / Furfural concentration: Furans; for Pyrazine, 2,5-diethyl- concentration / Pyrazine, 2,5-dimethyl- concentration / Pyrazine, 2-ethyl-5-methyl- concentration / Pyrazine, ethyl- concentration / Pyrazine, methyl- concentration: Pyrazines
Procedure: as §1, §2

[3] = Breakdown products by GCMS after Maillard reaction in the presence of Leucine; conditions: Maillard reaction in the presence of Leucine, 160° C., GCMS; for 2-Butanone concentration / 2-Propanone, 1-hydroxy- concentration / Diacetyl (2,3-Butanedione) concentration: Carbonyls/ketones; for Furan, 2-methyl- concentration / Furfural concentration: Furans; for Pyrazine, 2,5-diethyl- concentration / Pyrazine, 2,5-dimethyl- concentration / Pyrazine, 2-ethyl-5-methyl- concentration / Pyrazine, ethyl- concentration / Pyrazine, methyl- concentration: Pyrazines; for Isovaleraldehyde (Butanal, 3-methyl-) concentration: Strecker aldehydes
Procedure: as §1, §2

[4] = Breakdown products by GCMS without an amino acid present; conditions: pH 7, 160° C., 10 min
Procedure: as §1, §2

Structure (SMILES) | Concentration of 2-Butanone [1] | Concentration of 2-Propanone, 1-hydroxy- [1] | Concentration of Diacetyl (2,3-Butanedione) [1] | Concentration of Furan, 2-methyl- [1] | Concentration of Furan, 2-pentyl- [1] | Concentration of Furfural [1] | Concentration of Indole [1] | Concentration of Pyrazine, 2,5-diethyl- [1] | Concentration of Pyrazine, 2,5-dimethyl- [1] | Concentration of Pyrazine, 2-ethyl-5-methyl- [1] | Concentration of Pyrazine, ethyl- [1] | Concentration of Pyrazine, methyl- [1] | 2-Butanone concentration [2] | 2-Propanone, 1-hydroxy- concentration [2] | Diacetyl (2,3-Butanedione) concentration [2] | Furan, 2-methyl- concentration [2] | Furfural concentration [2] | Pyrazine, 2,5-diethyl- concentration [2] | Pyrazine, 2,5-dimethyl- concentration [2] | Pyrazine, 2-ethyl-5-methyl- concentration [2] | other results
N[C@@H](Cc1c[nH]c2ccccc12)C(=O)O [Tryptophan] | 0.56 ppb | 0.05 ppb | 2.08 ppb | 0 ppb | 0.03 ppb | 0.02 ppb | 8.55 ppb | 0 ppb | 0 ppb | 0.26 ppb | 0 ppb | 0 ppb |  |  |  |  |  |  |  |  | 
N[C@@H](Cc1c[nH]cn1)C(=O)O [Histidine] |  |  |  |  |  |  |  |  |  |  |  |  | 1.25 ppb | 0 ppb | 2.2 ppb | 0 ppb | 0.02 ppb | 0 ppb | 0 ppb | 0.38 ppb | Pyrazine, ethyl- concentration [2]: 0 ppb; Pyrazine, methyl- concentration [2]: 0 ppb
CC(C)C[C@H](N)C(=O)O [Leucine] |  |  |  |  |  |  |  |  |  |  |  |  |  |  |  |  |  |  |  |  | 2-Butanone concentration [3]: 2.04 ppb; 2-Propanone, 1-hydroxy- concentration [3]: 0.23 ppb; Diacetyl (2,3-Butanedione) concentration [3]: 3.75 ppb; Furan, 2-methyl- concentration [3]: 0 ppb; Furfural concentration [3]: 0.03 ppb; Pyrazine, 2,5-diethyl- concentration [3]: 0 ppb; Pyrazine, 2,5-dimethyl- concentration [3]: 0 ppb; Pyrazine, 2-ethyl-5-methyl- concentration [3]: 1 ppb; Pyrazine, ethyl- concentration [3]: 0 ppb; Pyrazine, methyl- concentration [3]: 0 ppb; Isovaleraldehyde (Butanal, 3-methyl-) concentration [3]: 1.56 ppb
O=C[C@H](O)[C@@H](O)[C@H](O)CO [Xylose] | 70.81 ppb | 227.11 ppb | 55.57 ppb | 52.32 ppb | 6.28 ppb | 0.15 ppb | 53.49 ppb | 25 ppb | 751.39 ppb | 394.72 ppb | 13.61 ppb | 59.72 ppb | 53.5 ppb | 196.75 ppb | 32.61 ppb | 28.4 ppb | 15.26 ppb | 17.88 ppb | 587.06 ppb | 288.64 ppb | Concentration of 2-Butanone [4]: 75.3 ppb; Concentration of 2-Propanone, 1-hydroxy- [4]: 196.36 ppb; Concentration of 5-methyl furfural [4]: 27.19 ppb; Concentration of Diacetyl (2,3-Butanedione) [4]: 267.18 ppb; Concentration of Furan, 2-methyl- [4]: 7.83 ppb; Concentration of Furfural [4]: 65.56 ppb; Pyrazine, ethyl- concentration [2]: 4.48 ppb; Pyrazine, methyl- concentration [2]: 5.22 ppb; 2-Butanone concentration [3]: 212.85 ppb; 2-Propanone, 1-hydroxy- concentration [3]: 647.73 ppb; Diacetyl (2,3-Butanedione) concentration [3]: 458.75 ppb; Furan, 2-methyl- concentration [3]: 170.12 ppb; Furfural concentration [3]: 118.44 ppb; Pyrazine, 2,5-diethyl- concentration [3]: 84.11 ppb; Pyrazine, 2,5-dimethyl- concentration [3]: 2510.13 ppb; Pyrazine, 2-ethyl-5-methyl- concentration [3]: 1146.75 ppb; Pyrazine, ethyl- concentration [3]: 59.9 ppb; Pyrazine, methyl- concentration [3]: 496.33 ppb; Isovaleraldehyde (Butanal, 3-methyl-) concentration [3]: 15873.58 ppb
